The values that follow come from patent US20100184683A1, “ANTIBACTERIAL AND ANTIFUNGAL PEPTIDES” (C3 JIAN, INC., priority 2009, published 2010).

The subject of assay [1] is C. albicans. It is filed as cell-based, Candida albicans. The method, then:
(§1) In certain embodiments the MIC assays are performed as described herein in the Examples. For each organism, the media and growth conditions utilized is detailed in Table 8.
(§2) In certain embodiments the MIC assays are performed as follows: For each organism, the media and growth conditions utilized is detailed in Table 8.

Assay [2] concerns S. epidermidis. It is filed as cell-based. The method, then:
as §1, §2

Assay [3] relates to T. rubrum. It is filed as cell-based, Trichophyton rubrum. The method, then: as §1, §2
Assay [4] has as its system B. subtilis. The assay is classed as cell-based, Bacillus subtilis. Here is the method: as §1, §2
Assay [5] relates to MRSA. The assay is classed as cell-based, Methicillin-resistant Staphylococcus aureus. Here is the method:
as §1, §2

The subject of assay [6] is A. niger. It is filed as cell-based, Aspergillus niger. The method, then: as §1, §2
For assay [7], the system named is Candida albicans. The assay can be described thus: Binding of targeting peptides to Candida albicans. The following applies: tested at 3.13, 6.25, 12.5 and 25.0 μM in 1× PBS or HEPES/NaCl/MgCl2/0.1% CTAB. Here is the method:
The peptides in Table 6 were tested for binding efficiency at 3.13, 6.25, 12.5 and 25.0 μM concentrations in 1× phosphate-buffered saline or 20 mM HEPES (4-(2-hydroxyethyl)-1-piperazineethanesulfonic acid), 150 mM sodium chloride, 1 mM magnesium chloride and 0.1% CTAB.

Assay [8] concerns S. pneumoniae. The assay is classed as cell-based, Streptococcus pneumoniae. The method, then:
as §1, §2

Where [9] appears, read: A. niger, Potato Dextrose Agar, 25° C., aerobic, inoculum 10^5 CFU/ml, 18-24 h or 48 h.

Converted amounts (≈) assume the structure as drawn. Read-outs that look alike come from different tables or passages of the source. Peptide text beside a SMILES is read from it.

`CC[C@H](C)[C@H](N)C(=O)N[C@@H](CC(C)C)C(=O)N[C@H](C(=O)N[C@@H](CC(C)C)C(=O)N[C@@H](CC(C)C)C(=O)N[C@@H](C)C(=O)N[C@@H](CC(C)C)C(=O)N[C@@H](CCC(N)=O)C(=O)N[C@H](C(=O)N[C@@H](CCC(=O)O)C(=O)N[C@@H](CC(C)C)C(=O)N[C@@H](CC(=O)O)C(=O)N[C@@H](CO)C(=O)N[C@@H](CCCCN)C(=O)N[C@@H](Cc1ccccc1)C(=O)N[C@@H](CCC(N)=O)C(=O)N[C@@H](Cc1ccc(O)cc1)C(=O)O)C(C)C)C(C)C` [PF-C157] (H-ILVLLALQVELDSKFQY-OH; N-terminus and C-terminus assumed) displayed an MIC in assay [1] of 50 µM (≈ 99.6 µg/mL).

`CC[C@H](C)[C@H](NC(=O)[C@H](CO)NC(=O)[C@H](CC(N)=O)NC(=O)[C@H](CCCNC(=N)N)NC(=O)[C@H](CC(N)=O)NC(=O)[C@H](CC(C)C)NC(=O)[C@H](CCCCN)NC(=O)[C@H](CCCCN)NC(=O)[C@H](CCCCN)NC(=O)[C@@H](NC(=O)[C@@H]1CCCN1C(=O)[C@H](CO)NC(=O)[C@H](CCCNC(=N)N)NC(=O)[C@@H](NC(=O)[C@H](CCCNC(=N)N)NC(=O)[C@@H](NC(=O)[C@@H](N)CCSC)[C@@H](C)CC)[C@@H](C)CC)[C@@H](C)O)C(=O)N[C@@H](CO)C(=O)N[C@@H](CC(=O)O)C(=O)N[C@@H](Cc1c[nH]c2ccccc12)C(=O)N[C@@H](CCCCN)C(=O)N[C@@H](CO)C(=O)N[C@@H](CC(N)=O)C(=O)N[C@H](C(=O)N[C@@H](CO)C(=O)NCC(=O)N[C@@H](CCCNC(=N)N)C(=O)N[C@@H](Cc1ccccc1)C(=O)N[C@@H](Cc1ccccc1)C(=O)N[C@@H](Cc1ccc(O)cc1)C(=O)O)[C@@H](C)O` [PF-283] (H-MIRIRSPTKKKLNRNSISDWKSNTSGRFFY-OH; N-terminus and C-terminus assumed): the MIC in assay [2], in assay [3] and in assay [4] was 50 µM (≈ 182 µg/mL) each time.

For `CC(C)[C@H](NC(=O)[C@H](C)NC(=O)[C@H](Cc1ccc(O)cc1)NC(=O)[C@@H](N)CC(N)=O)C(=O)N[C@H](C(=O)N[C@@H](CO)C(=O)N[C@@H](Cc1c[nH]cn1)C(=O)N[C@H](C(=O)O)[C@@H](C)O)C(C)C` [PF-209] (H-NYAVVSHT-OH; N-terminus and C-terminus assumed), the MIC in assay [5] was determined as 50 µM (≈ 44.5 µg/mL).

Consider `CSCC[C@H](NC(=O)[C@H](CCCNC(=N)N)NC(=O)[C@H](CCCNC(=N)N)NC(=O)[C@H](CC(C)C)NC(=O)[C@H](CCCNC(=N)N)NC(=O)[C@H](CCC(=O)O)NC(=O)[C@@H](NC(=O)[C@H](CS)NC(=O)CNC(=O)[C@H](CCCNC(=N)N)NC(=O)[C@@H](N)CCCNC(=N)N)[C@@H](C)O)C(=O)N[C@@H](C)C(=O)N[C@@H](CCCNC(=N)N)C(=O)N[C@@H](CCCNC(=N)N)C(=O)N[C@@H](CC(N)=O)C(=O)N[C@@H](C)C(=O)N[C@@H](Cc1c[nH]c2ccccc12)C(=O)N[C@@H](CC(=O)O)C(=O)N[C@@H](CC(C)C)C(=O)N[C@@H](Cc1ccc(O)cc1)C(=O)N[C@@H](C)C(=O)N[C@@H](CCC(=O)O)C(=O)N[C@@H](Cc1c[nH]cn1)C(=O)N[C@@H](Cc1ccccc1)C(=O)N[C@@H](Cc1ccc(O)cc1)C(=O)O` [PF-148] (H-RRGCTERLRRMARRNAWDLYAEHFY-OH; N-terminus and C-terminus assumed), for which the MIC in assay [6] and in assay [4] was 50 µM (≈ 161 µg/mL) each time.

Turning to `CC[C@H](C)[C@H](NC(=O)[C@H](C)NC(=O)[C@@H]1CCCN1C(=O)[C@H](Cc1ccccc1)NC(=O)[C@@H]1CCCN1C(=O)[C@H](CC(C)C)NC(=O)[C@@H](N)C(C)C)C(=O)N1CCC[C@H]1C(=O)N[C@@H](CC(C)C)C(=O)N[C@@H](CO)C(=O)N[C@@H](CCCNC(=N)N)C(=O)N[C@@H](CCCNC(=N)N)C(=O)N[C@@H](CCCNC(=N)N)C(=O)N[C@@H](C)C(=O)N[C@@H](CS)C(=O)N[C@H](C(=O)N[C@@H](C)C(=O)N[C@@H](C)C(=O)N1CCC[C@H]1C(=O)N[C@@H](CCCNC(=N)N)C(=O)N1CCC[C@H]1C(=O)N[C@@H](CCCNC(=N)N)C(=O)N[C@@H](CO)C(=O)N[C@@H](CCCNC(=N)N)C(=O)N[C@@H](CCC(N)=O)C(=O)N[C@@H](CCCNC(=N)N)C(=O)N[C@@H](C)C(=O)N[C@@H](CO)C(=O)O)C(C)C` [PF-168] (H-VLPFPAIPLSRRRACVAAPRPRSRQRAS-OH; N-terminus and C-terminus assumed), the minimum inhibitory concentration (MIC) in assay [5], in assay [6] and in assay [3] was 50 µM (≈ 156 µg/mL) each time. Further, the “Target(s): form of Candida albicans bound” value in assay [7] is recorded as “yeast cells”.

Regarding `CC(C)C[C@H](NC(=O)[C@H](CCC(N)=O)NC(=O)[C@H](CO)NC(=O)[C@H](CCC(N)=O)NC(=O)[C@H](CC(C)C)NC(=O)[C@@H](N)CO)C(=O)NCC(=O)N1CCC[C@H]1C(=O)N[C@@H](CS)C(=O)N[C@@H](CC(C)C)C(=O)N[C@@H](Cc1c[nH]cn1)C(=O)N[C@@H](CC(=O)O)C(=O)N[C@@H](CCC(N)=O)C(=O)N[C@@H](CCCNC(=N)N)C(=O)N[C@@H](Cc1c[nH]cn1)C(=O)O` [PF-448] (H-SLQSQLGPCLHDQRH-OH; N-terminus and C-terminus assumed), the MIC in assay [8] turned out to be 50 µM (≈ 85.9 µg/mL); in assay [6] it was 25 µM (≈ 43 µg/mL).

As for LSEMERRRLRKRA [PF-529], the minimal inhibitory concentration (MIC) in assay [8] (S. pneumoniae, TSB supplemented with 5% yeast extract, 37° C., 10% CO2, inoculum 10^6 CFU/ml, 18-24 h or 48 h) turned out to be 50 µM; in assay [6] (setting [9]) it was 50 µM.

With RESKLIAMADMIRRRI [PF-545], the MIC in assay [5] (MRSA, BHI supplemented with 2% glucose, 37° C., aerobic, inoculum 10^5 CFU/ml, 18-24 h or 48 h) is 50 µM; in assay [6] (setting [9]), 50 µM; in assay [4] (B. subtilis, BHI, 30° C., aerobic, inoculum 10^5 CFU/ml, 18-24 h or 48 h), 25 µM.

`CC[C@H](C)[C@H](NC(=O)[C@H](CC(N)=O)NC(=O)[C@@H](NC(=O)[C@H](Cc1ccccc1)NC(=O)[C@H](CCC(=O)O)NC(=O)CNC(=O)[C@H](CCC(N)=O)NC(=O)[C@H](Cc1ccccc1)NC(=O)[C@@H](N)CCCCN)[C@@H](C)O)C(=O)NCC(=O)N[C@@H](CCC(N)=O)C(=O)N[C@@H](CO)C(=O)N[C@@H](Cc1ccc(O)cc1)C(=O)N[C@H](C(=O)N[C@H](C(=O)N[C@@H](CO)C(=O)N[C@@H](C)C(=O)N[C@@H](CO)C(=O)N[C@@H](Cc1c[nH]cn1)C(=O)N[C@@H](CCSC)C(=O)N[C@@H](CO)C(=O)N[C@H](C(=O)N[C@@H](CO)C(=O)N[C@@H](CC(C)C)C(=O)N[C@@H](CC(N)=O)C(=O)N[C@H](C(=O)NCC(=O)N[C@@H](CCCCN)C(=O)O)[C@@H](C)O)[C@@H](C)O)C(C)C)[C@@H](C)CC` [PF-583] (H-KFQGEFTNIGQSYIVSASHMSTSLNTGK-OH; N-terminus and C-terminus assumed): the MIC in assay [5] and in assay [2] was 50 µM (≈ 152 µg/mL) in each case. Besides, in assay [7], the “Target(s): form of Candida albicans bound” value is “hyphae”.

As for `CC[C@H](C)[C@H](NC(=O)[C@H](CCC(N)=O)NC(=O)[C@H](CC(=O)O)NC(=O)[C@H](CO)NC(=O)[C@H](Cc1ccccc1)NC(=O)[C@@H](N)CCCCN)C(=O)N[C@@H](CC(=O)O)C(=O)N[C@@H](CCCCN)C(=O)NCC(=O)N[C@@H](CCC(N)=O)C(=O)N[C@@H](CC(=O)O)C(=O)N[C@@H](C)C(=O)N[C@@H](CC(C)C)C(=O)N[C@@H](CCCCN)C(=O)N[C@@H](CC(=O)O)C(=O)N[C@@H](CCCCN)C(=O)N[C@@H](CC(C)C)C(=O)NCC(=O)N[C@@H](CC(=O)O)C(=O)N[C@@H](CC(C)C)C(=O)O` [PF-525] (H-KFSDQIDKGQDALKDKLGDL-OH; N-terminus and C-terminus assumed), the MIC in assay [8] and in assay [6] was 50 µM (≈ 112 µg/mL) throughout.
